Experimental data taken from patent US9562031B1, “Phenethyldihydrobenzodioxolones and methods of use” (Sequoia Sciences, Inc., priority 2015, dated 2017).
Values joined by “and” are separate entries in the source; they are usually repeats but may differ in a detail not shown here. Identical values can stand only once.

Key:
OVCAR-3 cells = assay: antiproliferation assay, OVCAR-3; format: cell-based; conditions: Homo sapiens
Method: (§1) For the antiproliferation assay, NCI-H460 (large cell lung carcinoma) or M14 (amelanotic melanoma) cells were grown in RPMI-1640 with 10% FBS supplemented with L-glutamine and HEPES. Cells were seeded into 96-well plates at 5×10^2 to 5×10^4 cells/well and allowed to adhere overnight; the medium was then removed. A stock solution of test compound in DMSO was diluted in medium to generate a series of working solutions. Aliquots (100 μl) of the working solutions were then added to the appropriate test wells to expose cells to the final concentrations of compound in a total volume of 100 μl. Seven different concentrations were tested, with 2-5 wells per concentration. Camptothecin was used as a positive control; wells containing vehicle without compound were used as negative controls. Plates were kept for 72 h in a 37° C., 5% CO2 incubator. After incubation, viable cells were detected with the CELLTITER 96 AQueous Non-Radioactive Cell Proliferation Assay (Promega), and IC50 values were determined using GraphPad Prism 5 software.
Antiproliferation of several of the active compounds was tested against additional cell lines.

HCT-15 cells [1] = assay: antiproliferation assay, paclitaxel-resistant HCT-15; format: cell-based; conditions: Homo sapiens
Method: as §1
(§2) Compound 4 was tested for antiproliferation activity against several paclitaxel-resistant human cancer cell lines.

ACHN cells = assay: antiproliferation assay, paclitaxel-resistant ACHN; format: cell-based; conditions: Homo sapiens
Method: as §1, §2

[2] = test system: NCI-H460 (lung) xenograft tumors; assay: tumor growth inhibition, NCI-H460 murine xenograft model; format: in vivo, mice
Method: Tumor growth inhibition of compound 4 was measured in several murine xenograft models, and the results of individual experiments are listed in Table 14. Tumors were initiated by subcutaneous injection of either tumor cells from cell culture or tumor fragments from continuous in vivo passage. When tumors reached volumes between approximately 100 and 200 mm^3, the mice were divided into vehicle and treatment groups. Compound or vehicle was administered by IP injection in a volume of 5-10 mL/kg.
Changes in tumor weight (delta weights) for each treated (T) and control (C) group are calculated for each day tumors are measured by subtracting the median tumor weight on the first day of treatment (staging day) from the median tumor weight on the specified observation day. These values are used to calculate a percent T/C as follows: % T/C=(delta T/delta C)×100. The optimal T/C is the minimal value obtained after the first treatment.

SW-620 cells = assay: NCI-60 panel antiproliferation, SW-620; format: cell-based, human; conditions: Homo sapiens, NCI 60-cell panel
Method: (§3) Bifidenone and Compound 37 were tested for antiproliferation activity against the NCI-60 panel of cancer cell lines. COMPARE analysis was then conducted to compare the activity “fingerprint” of bifidenone to those of known classes of compounds (Zhou, B.-N., Hoch, J. M., Johnson, R. K., Mattern, M. R., Eng, W.-K., Ma, J., Hecht, S. M., Newman, D. J., Kingston, D. G. I., 2000. Use of COMPARE Analysis to Discover New Natural Product Drugs: Isolation of Camptothecin and 9-Methoxycamptothecin from a New Source. Journal of Natural Products 63, 1273-1276.).

NCI-ADR/RES cells = assay: NCI-60 panel antiproliferation, NCI-ADR/RES; format: cell-based, human; conditions: Homo sapiens, NCI 60-cell panel
Method: as §3

SK-OV-3 cells = assay: NCI-60 panel antiproliferation, SK-OV-3; format: cell-based, human; conditions: Homo sapiens, NCI 60-cell panel
Method: as §3

IGR-OV1 cells = assay: NCI-60 panel antiproliferation, IGR-OV1; format: cell-based, human; conditions: Homo sapiens, IGROV-1, NCI 60-cell panel
Method: as §3

HCT-15 cells [3] = assay: NCI-60 panel antiproliferation, HCT-15; format: cell-based, human; conditions: Homo sapiens, NCI 60-cell panel
Method: as §3

COLO205 cells = assay: NCI-60 panel antiproliferation, COLO205; format: cell-based, human; conditions: Homo sapiens, COLO 205, NCI 60-cell panel
Method: as §3

786-0 cells = assay: NCI-60 panel antiproliferation, 786-0; format: cell-based, human; conditions: Homo sapiens, NCI 60-cell panel
Method: as §3

CCRF-CEM cells = assay: NCI-60 panel antiproliferation, CCRF-CEM; format: cell-based, human; conditions: Homo sapiens, NCI 60-cell panel
Method: as §3

NCI-H226 cells = assay: NCI-60 panel antiproliferation, NCI-H226; format: cell-based, human; conditions: Homo sapiens, NCI 60-cell panel
Method: as §3

SK-MEL-28 cells = assay: NCI-60 panel antiproliferation, SK-MEL-28; format: cell-based, human; conditions: Homo sapiens, NCI 60-cell panel
Method: as §3

K-562 cells = assay: NCI-60 panel antiproliferation, K-562; format: cell-based, human; conditions: Homo sapiens, K562, NCI 60-cell panel
Method: as §3

UO-31 cells = assay: NCI-60 panel antiproliferation, UO-31; format: cell-based, human; conditions: Homo sapiens, NCI 60-cell panel
Method: as §3

KM12 cells = assay: NCI-60 panel antiproliferation, KM12; format: cell-based, human; conditions: Homo sapiens, NCI 60-cell panel
Method: as §3

MCF-7 cells = assay: NCI-60 panel antiproliferation, MCF-7; format: cell-based, human; conditions: Homo sapiens, MCF7, NCI 60-cell panel
Method: as §3

EKVX cells = assay: NCI-60 panel antiproliferation, EKVX; format: cell-based, human; conditions: Homo sapiens, NCI 60-cell panel
Method: as §3

LOX IMVI cells = assay: NCI-60 panel antiproliferation, LOX IMVI; format: cell-based, human; conditions: Homo sapiens, NCI 60-cell panel
Method: as §3

OVCAR-8 cells = assay: NCI-60 panel antiproliferation, OVCAR-8; format: cell-based, human; conditions: Homo sapiens, NCI 60-cell panel
Method: as §3

NCI-H460 cells = assay: NCI-60 panel antiproliferation, NCI-H460; format: cell-based, human; conditions: Homo sapiens, NCI 60-cell panel
Method: as §3

[4] = IP 30 mg/kg, days 0,1,2,3,5,6,7,8,10,11,12,13
[5] = IP 60 mg/kg, days 0,1,2,5,6,7,10,11,12

C=CC[C@H]1C[C@]2([C@H](C)Cc3cc(O)c(OC)cc3F)OCOC2=CC1=O (relative stereo) [Compound 4, 6-allyl-7a-(1-(2-fluoro-5-hydroxy-4-methoxyphenyl)propan-2-yl)-7,7a-dihydrobenzo[d][1,3]dioxol-5(6H)-one]
IC50 (OVCAR-3 cells): 12 nM
IC50 (HCT-15 cells [1]): < 5 nM
IC50 (ACHN cells): 15 nM
Maximum Mean Body Weight Loss [2, 4]: 7%
Optimal T/C [2, 4]: 42%
Maximum Mean Body Weight Loss ([2]; IP 40 mg/kg, days 0,1,2,5,6,7,10,11,12 (two experiments)): 7%
Optimal T/C ([2]; IP 40 mg/kg, days 0,1,2,5,6,7,10,11,12 (two experiments), 40 mg/kg): 29% and 35%
Maximum Mean Body Weight Loss [2, 5]: 9%
Optimal T/C [2, 5]: 40%

C=CC[C@H]1C[C@]2([C@@H](C)Cc3ccc(OC)c(F)c3)OCOC2=CC1=O [Compound 37, (6S,7aR)-6-allyl-7a-((S)-1-(3-fluoro-4-methoxyphenyl)propan-2-yl)-7,7a-dihydrobenzo[d][1,3]dioxol-5(6H)-one]
IC50 (SW-620 cells): 47 nM
IC50 (NCI-ADR/RES cells): 47 nM
IC50 (SK-OV-3 cells): 39 nM
IC50 (IGR-OV1 cells): 63 nM
IC50 (HCT-15 cells [3]): 56 nM
IC50 (COLO205 cells): 67 nM
IC50 (786-0 cells): 120 nM
IC50 (CCRF-CEM cells): 60 nM
IC50 (NCI-H226 cells): 141 nM
IC50 (SK-MEL-28 cells): 37 nM
IC50 (K-562 cells): 43 nM
IC50 (UO-31 cells): 65 nM
IC50 (KM12 cells): 55 nM
IC50 (MCF-7 cells): 63 nM
IC50 (EKVX cells): 149 nM
IC50 (LOX IMVI cells): 27 nM
IC50 (OVCAR-8 cells): 110 nM
IC50 (NCI-H460 cells): 49 nM
